Data as given in patent publication US20250210145A1, “METHOD FOR DETERMINING THE RESISTANCE OF A MICROORGANISM TO AN ANTIMICROBIAL AGENT” (Commissariat à l'Energie Atomique et aux Energies …, priority 2023, published 2025).

Key:
[1] = test system: Escherichia coli strain ATCC35218 ("EC207"); conditions: cited from earlier work
[2] = test system: Escherichia coli strain ATCC35218 ("EC207"); experiment: FTIR heavy-water labeling level (metabolism) versus antibiotic concentration, strain EC207; assay type: cell-based; conditions: FIG. 4C, amoxicillin 1-64 μg/mL, two hours incubation, Mueller-Hinton medium with 50% v/v heavy water
Experimental: (§1) Once the LDA classifier had been parameterized, it was used in a test phase on Escherichia coli cultures.
(§2) An overnight pre-culture was performed to synchronize the metabolic states of the bacterial populations. Test samples were prepared using different concentrations of amoxicillin (64, 32, 16, 8, 4, 2 and 1 μg/mL), and a culture of each strain was prepared in 2 ml of Mueller-Hinton medium with 50% v/v heavy water and antibiotic. A control sample without antibiotic was prepared. The test samples were then incubated for two hours. After incubation, the test samples were centrifuged and re-suspended in 30 μL of water, then a 5 μl drop was placed on a calcium fluoride slide. The slide was dried by exposure to a hot, dry atmosphere. On each test sample, 64 spectra are acquired using an FTIR microscope at 15× magnification, in order to eliminate potential variations in the sample's thickness of texture.
(§3) This provided test spectra corresponding to the exposure of bacterial strains to different antibiotic concentrations. The algorithm parameterized during the training phase enabled measuring a labeling level for each sample, which is considered representative of metabolic activity.

[3] = test system: Escherichia coli strain ATCC25922 ("EC10"); conditions: cited from earlier work
[4] = test system: Escherichia coli strain ATCC25922 ("EC10"); experiment: FTIR heavy-water labeling level (metabolism) versus antibiotic concentration, strain EC10; assay type: cell-based; conditions: FIG. 4C, amoxicillin 1-64 μg/mL, two hours incubation, Mueller-Hinton medium with 50% v/v heavy water
Experimental: as §1, §2, §3

[5] = test system: Staphylococcus Saprophyticus strains SS91, SS96; experiment: FTIR heavy-water labeling level (metabolism) versus antibiotic concentration, strains not used during training; assay type: cell-based; conditions: FIG. 5; each of strains SS91 and SS96, above a strain-specific antibiotic concentration (value not given)
Excerpt: The x-axis corresponds to the antibiotic concentration (Gentamicin). The y-axis corresponds to a labeling level.

Row | Molecule | sensitivity to the antibiotic (reference strain status) [1] | resistance judged from labeling level (metabolism) [2] | sensitivity to the antibiotic (reference strain status) [3] | concentration above which growth inhibition is exhibited ([3]; reference strain ATCC25922 (EC10)) [µg/mL] | concentration above which the strain is sensitive (labeling level decreases) [4] [µg/mL] | labeling level as a function of antibiotic concentration [5]
1 | CC1(C)S[C@@H]2[C@H](NC(=O)[C@H](N)c3ccc(O)cc3)C(=O)N2[C@H]1C(=O)O [amoxicillin] | resistant | resistant to all the antibiotic concentrations used | sensitive | 4 | ~10 | –
2 | Gentamicin | – | – | – | – | – | labeling level decreases
